Laboratory results published in ChEMBL document CHEMBL1150474, “Synthesis of new penem dithiocarbamates” (1993).

How the values were obtained:
Type in all cases: functional
Pseudomonas aeruginosa [1] = assay: Antibacterial activity against Pseudomonas aeruginosa VR5
Escherichia coli [2] = assay: Antibacterial activity against Escherichia coli ATCC 25922
Escherichia coli [3] = assay: Antibacterial activity against Escherichia coli DC2, hyperpermeable strain
Pseudomonas aeruginosa [4] = assay: Antibacterial activity against Pseudomonas aeruginosa ATCC 27853
Staphylococcus aureus [5] = assay: Antibacterial activity against Staphylococcus aureus ATCC 25923
Staphylococcus aureus [6] = assay: Antibacterial activity against Staphylococcus aureus MR 0.13

Compound	MIC (Pseudomonas aeruginosa [1])	MIC (Escherichia coli [2])	MIC (Escherichia coli [3])	MIC (Pseudomonas aeruginosa [4])	MIC (Staphylococcus aureus [5])	MIC (Staphylococcus aureus [6])
C[C@@H]([O-])[C@H]1C(=O)N2C(C(=O)[O-])=C(CSC(=S)N3CC[N+](C)(C)CC3)S[C@H]12.[Na+]	4 µg/mL	4 µg/mL	2 µg/mL	> 32 µg/mL	0.03 µg/mL	0.03 µg/mL
C[C@@H](O)[C@H]1C(=O)N2C(C(=O)[O-])=C(CSC(=S)N(C)CCc3ccccn3)S[C@H]12.[Na+]	> 32 µg/mL	> 32 µg/mL	2 µg/mL	> 32 µg/mL	0.06 µg/mL	0.12 µg/mL
CC(=O)N1CCN(C(=S)SCC2=C(C(=O)[O-])N3C(=O)[C@H]([C@@H](C)O)[C@H]3S2)CC1.[Na+]	16 µg/mL	16 µg/mL	4 µg/mL	> 32 µg/mL	0.12 µg/mL	0.12 µg/mL
CC1(C)S[C@@H]2[C@H](NC(=O)[C@H](N)c3ccccc3)C(=O)N2[C@H]1C(=O)O.CC1(C)[C@H](C(=O)O)N2C(=O)C[C@H]2S1(=O)=O	0.25 µg/mL	8 µg/mL	–	32 µg/mL	0.25 µg/mL	0.12 µg/mL
C[C@@H](O)[C@H]1C(=O)N2C(C(=O)[O-])=C(CSC(=S)N3CCN(C)CC3)S[C@H]12.[Na+]	4 µg/mL	4 µg/mL	0.5 µg/mL	> 32 µg/mL	0.03 µg/mL	0.06 µg/mL
C[C@@H](O)[C@H]1C(=O)N2C(C(=O)[O-])=C(CSC(=S)N(C)c3ccccn3)S[C@H]12.[Na+]	> 32 µg/mL	> 32 µg/mL	1 µg/mL	> 32 µg/mL	0.06 µg/mL	0.5 µg/mL
C[C@@H](O)[C@H]1C(=O)N2C(C(=O)[O-])=C(CSC(=S)N3CCOCC3)S[C@H]12.[Na+]	0.5 µg/mL	32 µg/mL	0.5 µg/mL	> 32 µg/mL	0.03 µg/mL	0.06 µg/mL
C[C@@H](O)[C@H]1C(=O)N2C(C(=O)[O-])=C(CSC(=S)N(C)OCc3ccccc3)S[C@H]12.[Na+]	32 µg/mL	> 32 µg/mL	2 µg/mL	> 32 µg/mL	0.03 µg/mL	0.12 µg/mL
C[C@@H](O)[C@H]1C(=O)N2C(C(=O)[O-])=C(CSC(=S)N(C)C)S[C@H]12.[Na+]	1 µg/mL	32 µg/mL	0.12 µg/mL	> 32 µg/mL	0.03 µg/mL	0.06 µg/mL
C[C@@H](O)[C@H]1C(=O)N2C(C(=O)[O-])=C(CSC(=S)N3CCCC3)S[C@H]12.[Na+]	> 32 µg/mL	> 32 µg/mL	0.5 µg/mL	> 32 µg/mL	0.03 µg/mL	0.12 µg/mL
C[C@@H](O)[C@H]1C(=O)N2C(C(=O)[O-])=C(CSC(=S)N(C)c3ccccc3)S[C@H]12.[Na+]	> 32 µg/mL	> 32 µg/mL	1 µg/mL	> 32 µg/mL	0.03 µg/mL	0.25 µg/mL
C[C@@H](O)[C@H]1C(=O)N2C(C(=O)[O-])=C(CSC(=S)N3CCNCC3)S[C@H]12.[Na+]	4 µg/mL	8 µg/mL	4 µg/mL	> 32 µg/mL	0.12 µg/mL	0.25 µg/mL
C[C@@H](O)[C@H]1C(=O)N2C(C(=O)[O-])=C(CSC(=S)N(C)CC(N)=O)S[C@H]12.[Na+]	4 µg/mL	8 µg/mL	0.5 µg/mL	> 32 µg/mL	0.12 µg/mL	0.03 µg/mL
C[C@@H](O)[C@H]1C(=O)N2C(C(=O)[O-])=C(CSC(=S)N(CCO)CCO)S[C@H]12.[Na+]	2 µg/mL	32 µg/mL	4 µg/mL	> 32 µg/mL	0.25 µg/mL	0.5 µg/mL
CC(=O)OCCN(CCOC(C)=O)C(=S)SCC1=C(C(=O)[O-])N2C(=O)[C@H]([C@@H](C)O)[C@H]2S1.[Na+]	> 32 µg/mL	> 32 µg/mL	2 µg/mL	> 32 µg/mL	0.12 µg/mL	0.5 µg/mL
C[C@@H](O)[C@H]1C(=O)N2C(C(=O)[O-])=C(CSC(=S)N(C)Cc3ccccc3)S[C@H]12.[Na+]	32 µg/mL	> 32 µg/mL	1 µg/mL	> 32 µg/mL	0.06 µg/mL	0.5 µg/mL
C[C@@H](O)[C@H]1C(=O)N2C(C(=O)[O-])=C(CSC(=S)N3CCN(C(=O)c4ccc(O)c(O)c4)CC3)S[C@H]12.[Na+]	–	> 32 µg/mL	0.5 µg/mL	> 32 µg/mL	0.25 µg/mL	1 µg/mL
